The text below walks through data of patent publication US12168643B2, “Compounds for the treatment of neuromuscular disorders” (NMD PHARMA A/S, priority 2019, dated 2024).

Experiment [1] relates to isolated rat soleus muscles. Nature of the experiment: Recovery of nerve-stimulated contractile force in isolated rat soleus nerve-muscle preparations exposed to tubocurarine. Type of experiment: cell-based. Conditions: 50 μM compound, 40 mins exposure, after 90 mins 115 nM tubocurarine. The procedure: FIG. 2. […] Force traces from a representative muscle stimulated to contract in 1) control condition before addition of neuromuscular blocking agent, 2) the force response to stimulation after 90 minutes incubation with Tubocurarine. […] The traces presented in panel A (1, 2, 3), correspond to the dotted lines in panel B, respectively.
Recovery of force is quantified as the percentage of the force prior to tubocurarine that is recovered by the compound.
The current disclosure relates to compounds that inhibit CIC-1 ion channels and increase muscle excitability and thereby improve muscle function in clinical conditions where muscle activation is failing. Such conditions result in loss of contractile function of skeletal muscle, weakness and excessive fatigue. In this series of experiments the compounds were tested for their ability to restore contractile function of isolated rat muscle when the neuromuscular transmission had been compromised akin to neuromuscular disorders.
Experimentally, soleus muscles from 4-5 week old rats were isolated with the motor nerve remaining attached. The nerve-muscle preparations were mounted in experimental setups that enabled electrical stimulation of the motor nerve. Stimulation of the motor nerve led to activation of the muscle fibres and ensuing force production that was recorded.
After mounting the nerve-muscle preparation in the experimental setup, the contractile function of the muscle was initially assessed under the control conditions (FIG. 2A). […] The experimental condition mimics the failing neuromuscular transmission in a range of neuromuscular disorders. After addition of tubocurarine the contractile force declined over the next 90 mins to 10-50% of the control force. 50 μM of the test compound was then added and the contractile force recovered despite the continued presence of tubocurarine. To quantify the ability of the compound to restore force the percentage of the initial force that was restored was determined after 40 mins of compound exposure (FIG. 2B) and the point increase is reported in Table 3.

Another experiment deals with T1, CIC-1 ion channel (Rattus norvegicus, UniProt P35524).
T1 construct: from tissue; host or cells: whole soleus muscle of 12-14 week old Wistar rats
T1 sequence (P35524 1-994): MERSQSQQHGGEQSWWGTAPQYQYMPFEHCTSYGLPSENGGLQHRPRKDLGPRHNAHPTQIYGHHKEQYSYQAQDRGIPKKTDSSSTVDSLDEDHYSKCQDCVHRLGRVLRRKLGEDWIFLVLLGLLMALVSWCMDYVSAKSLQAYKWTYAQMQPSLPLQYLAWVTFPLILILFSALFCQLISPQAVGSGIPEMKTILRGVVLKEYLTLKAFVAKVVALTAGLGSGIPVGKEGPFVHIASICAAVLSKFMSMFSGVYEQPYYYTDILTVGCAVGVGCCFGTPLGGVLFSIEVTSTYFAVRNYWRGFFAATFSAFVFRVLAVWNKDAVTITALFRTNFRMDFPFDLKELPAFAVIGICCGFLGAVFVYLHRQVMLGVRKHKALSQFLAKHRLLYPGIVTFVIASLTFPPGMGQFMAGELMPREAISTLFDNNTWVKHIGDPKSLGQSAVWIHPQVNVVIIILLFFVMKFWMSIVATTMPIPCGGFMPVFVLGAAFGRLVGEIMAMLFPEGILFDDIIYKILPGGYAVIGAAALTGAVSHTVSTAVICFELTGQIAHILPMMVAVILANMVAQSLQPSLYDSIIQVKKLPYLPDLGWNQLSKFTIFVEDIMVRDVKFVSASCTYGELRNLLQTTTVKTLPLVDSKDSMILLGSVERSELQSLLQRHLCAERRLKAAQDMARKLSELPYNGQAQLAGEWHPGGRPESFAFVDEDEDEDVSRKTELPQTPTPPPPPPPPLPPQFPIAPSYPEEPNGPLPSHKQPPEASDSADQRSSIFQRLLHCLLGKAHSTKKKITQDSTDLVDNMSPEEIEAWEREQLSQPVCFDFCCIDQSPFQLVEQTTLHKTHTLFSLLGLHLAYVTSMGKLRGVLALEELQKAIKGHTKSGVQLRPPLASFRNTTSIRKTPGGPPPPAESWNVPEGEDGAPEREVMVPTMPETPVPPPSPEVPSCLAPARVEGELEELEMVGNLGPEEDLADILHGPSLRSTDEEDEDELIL
Nature of the experiment: Electrophysiological measurement (three micro-electrode Gm) of compound inhibition of CIC-1 in rat soleus muscle fibres. Type of experiment: cell-based. Conditions: whole rat soleus muscle, approx. 30° C., four increasing concentrations; mean ± spread, n = experiments; read-out: EC50 (inhibition of CIC-1 ion channel, reduction of Gm).

A further experiment concerns hindlimb muscle force. The experiment can be described thus: In situ isometric hindlimb force in anaesthetised rats with neuromuscular transmission partially inhibited by Cisatracurium. In kind it is in vivo. Conditions: 47.2 mg/kg i.v., 80 Hz stimulation, Cisatracurium infusion, female Lewis rats. The procedure:
Isometric hindlimb force was measured in 12-week old female Lewis rats in the presence and absence of compound.
Rats were placed under anesthesia with isoflurane (2-4%), intubated and subsequently connected to a micro ventilator (Microvent 1, Hallowell EMC, US). Two stimulation electrodes were inserted through the skin to stimulate the sciatic nerve. A small incision was made proximal to the ankle, to expose the Achilles tendon, which was tied by cotton string, and connected to a force transducer (Fort250, World Precision Instruments) with adjustable position (Vernier control). The Achilles tendon was then cut distal to the attached cotton string. […]
Muscle contractile properties were assessed by applying an electrical current (under supramaximal voltage conditions) to the nerve and recording the force generated by the muscle. The muscle was stretched until maximal force was obtained, when assessed by 2 Hz stimulation. Isometric force was measured every 30 seconds at 12 Hz (Twitch), 10 pulses, and at every 5 minutes at 80 Hz (Tetanic) for 1 second (80 pulses). […] The effect of test article was assessed on its ability to increase force generated from the stimulation pattern applied. The effect was assessed in the ability to increase force per se (tetanic, 80 Hz, stimulation), and the ratio between individual twitch peaks (12 Hz stimulation). […]

Marks after values point to notes of the source that are not given here.

Regarding `COC[C@@H](Oc1ccc(Br)cc1C1CC1)C(=O)O` (single isomer, unassigned) [(2R)-A-1], in experiment [1], the “Point increase (%) of initial force that was restored” value (“Point increase (%)” for short) stood at 0.2%.
Regarding `COC[C@@H](Oc1ccc(Br)cc1C1CCC1)C(=O)[O-].[Na+]` [(2R)-A-6, Sodium (R)-2-(4-bromo-2-cyclobutylphenoxy)-3-methoxypropanoate], the “Point increase (%)” value in experiment [1] is −4.1 ± 1.4%.
Usually EC50 stands for the concentration giving half of the maximal effect. `COC[C@H](Oc1ccc(Br)cc1C1CC1)C(=O)O` [Compound A-1, (2S)-2-(4-Bromo-2-cyclopropylphenoxy)-3-methoxypropanoic acid]: the EC50 on CIC-1 ion channel was 3.7 ± 0.2 µM. The “Point increase (%)” value in experiment [1] is 36.3* %. Further, the “increase in tetanic force” value in the experiment with hindlimb muscle force stood at 85%.
As to `COC[C@H](Oc1cc(F)c(Br)cc1C1CC1)C(=O)O` [Compound A-2, (2S)-2-(4-bromo-2-cyclopropyl-5-fluorophenoxy)-3-methoxypropanoic acid], in experiment [1], the “Point increase (%)” value came out at 22.3 ± 3.8%.
Turning to `COC[C@H](Oc1ccc(Br)cc1C1CCC1)C(=O)O` [Compound A-6, (2S)-2-(4-bromo-2-cyclobutylphenoxy)-3-methoxypropanoic acid], the EC50 on CIC-1 ion channel was 3.2 ± 2.1 µM. The “Point increase (%)” value in experiment [1] came to 35.6 ± 8.3%.
